Like-named read-outs stand apart in the source and are kept apart here.
Key:
[1] = FIH study 67856633LYM1001 plasma pharmacokinetics; format: in vivo, human; conditions: human, plasma
Text: The study consists of a dose escalation phase (Part 1), to determine the recommended Phase 2 dose(s) (RP2D[s]), followed by an expansion phase at the RP2D(s) (Part 2). The dose escalation phase is supported using an adaptive dose escalation strategy guided by the modified continual reassessment method (mCRM) based on a Bayesian Logistic Regression Model (BLRM) with escalation with overdose control (EWOC) principle. The mCRM design allows the use of all cumulative dose-limiting toxicities (DLT) data up to the current dose cohort.
In Part 1, subjects were enrolled in cohorts of daily oral doses at 50 mg, 100 mg, 200 mg (1×200 mg or 4×50 mg), 300 mg (3×100 mg or 6×50 mg), 400 mg (2×200 mg or 8×50 mg), and 600 mg (3×200 mg), and loading dosing cohorts—400 mg loading dose once daily for 14 days, followed by 300 mg once daily, and 300 mg loading dose twice daily for 7 days followed by 300 mg once daily. In Part 2, subjects received daily oral doses of 300 mg.
In Part 1, PK data were available in subjects receiving doses of 50 mg (1×50 mg), 100 mg (2×50 mg), 200 mg (4×50 mg or 1×200 mg), 300 mg (6×50 mg or 3×100 mg), 400 mg (8×50 mg or 2×200 mg), and 600 mg (3×200 mg). Pharmacokinetic data were also available from the loading dose regimens of 400 mg (8×50 mg) loading dose once daily for 14 days followed by 300 mg (6×50 mg) once daily, and 300 mg (6×50 mg) loading dose twice daily for 7 days followed by 300 mg (6×50 mg) once daily.

[2] = Serum concentration after 28 days of oral dosing in male OCI-LY3 tumor-bearing NSG mice; format: in vivo; conditions: mouse, mean; for concentration at 0.25 h: 0.25 h post last dose
[3] = system: panel of 91 tumor cell lines; test: Growth inhibition across various cancer indications; format: cell-based; conditions: more than 18 tumor indications, no ABC-DLBCL lines
Text: The panel represents cancer cell lines from more than 18 different tumor indications, including breast, colon, lung, ovarian, and blood cancers.

[4] = system: Rec1 (Ibrutinib sensitive MCL); test: Anti-proliferative activity, DLBCL cell line panel; format: cell-based; conditions: Homo sapiens, Rec1, 192 h; antiproliferation after 8 days of treatment

SMILES: O=C(Nc1ccnc(C(F)(F)F)c1)c1cnn(-c2cccc3c(=O)[nH]ccc23)c1C(F)(F)F [Compound A, 1-(1-oxo-1,2-dihydroisoquinolin-5-yl)-5-(trifluoromethyl)-N-[2-(trifluoromethyl)pyridin-4-yl]-1H-pyrazole-4-carboxamide]
- Cmax ([1]; oral, 200 mg, Cycle 1 Day 1, 50 mg capsule, cohort 4 × 50 mg, Subject 100032 excluded, mean, read-out: Cmax): 6750 ng/mL
- Tmax ([1]; oral, 200 mg, Cycle 1 Day 1, 50 mg capsule, cohort 4 × 50 mg, Subject 100032 excluded, median, read-out: Tmax): 4 h
- AUC ([1]; oral, 200 mg, Cycle 1 Day 1, 200 mg capsule, cohort 200 mg, mean, read-out: AUCτ): 61.9 µg·h/mL
- Cmax ([1]; oral, 200 mg, Cycle 1 Day 1, 200 mg capsule, cohort 200 mg, mean, read-out: Cmax): 4060 ng/mL
- Tmax ([1]; oral, 200 mg, Cycle 1 Day 1, 200 mg capsule, cohort 200 mg, median, read-out: Tmax): 4 h
- AUC ([1]; oral, 200 mg, Cycle 1 Day 1, cohort 4 × 50 mg, with Subject 100032 data included, read-out: mean AUC): 139 µg·h/mL
- Cmax ([1]; oral, 200 mg, Cycle 1 Day 1, cohort 4 × 50 mg, with Subject 100032 data included, read-out: mean Cmax): 8060 ng/mL
- AUC ([1]; oral, 200 mg, Cycle 2 Day 1, 50 mg capsule, cohort 4 × 50 mg, Subject 100032 excluded, mean, read-out: AUCτ): 882 µg·h/mL
- Cmax ([1]; oral, 200 mg, Cycle 2 Day 1, 50 mg capsule, cohort 4 × 50 mg, Subject 100032 excluded, mean, read-out: Cmax): 44800 ng/mL
- Tmax ([1]; oral, 200 mg, Cycle 2 Day 1, 50 mg capsule, cohort 4 × 50 mg, Subject 100032 excluded, median, read-out: Tmax): 2 h
- Cmax ([1]; oral, 200 mg, Cycle 2 Day 1, 200 mg capsule, cohort 200 mg, individual values, N = 2, read-out: Cmax): 25700 ng/mL
- AUC ([1]; oral, 200 mg, Cycle 2 Day 1, 200 mg capsule, cohort 200 mg, read-out: AUCτ): 453 µg·h/mL
- AUC ([1]; oral, 200 mg, Cycle 2 Day 1, cohort 4 × 50 mg, with Subject 100032 data included, read-out: mean AUC): 1140 µg·h/mL
- Cmax ([1]; oral, 200 mg, Cycle 2 Day 1, cohort 4 × 50 mg, with Subject 100032 data included, read-out: mean Cmax): 58200 ng/mL
- AUC ([1]; oral, 300 mg, Cycle 1 Day 1, 50 mg capsule, cohort 6 × 50 mg (300 mg QD), mean, n = 9, read-out: AUCτ): ~152 µg·h/mL
- Cmax ([1]; oral, 300 mg, Cycle 1 Day 1, 50 mg capsule, cohort 6 × 50 mg (300 mg QD), mean, read-out: Cmax): ~8810 ng/mL
- Tmax ([1]; oral, 300 mg, Cycle 1 Day 1, 50 mg capsule, cohort 6 × 50 mg (300 mg QD), median, read-out: Tmax): ~4 h
- Cmax ([1]; oral, 300 mg, Cycle 1 Day 1, cohort 6 × 50 mg BID > QD (300 mg BID 7 days then 300 mg QD), mean, read-out: Cmax): 4310 ng/mL
- Tmax ([1]; oral, 300 mg, Cycle 1 Day 1, cohort 6 × 50 mg BID > QD (300 mg BID 7 days then 300 mg QD), median, read-out: Tmax): ~6 h
- AUC ([1]; oral, 300 mg, Cycle 2 Day 1, 50 mg capsule, cohort 6 × 50 mg (300 mg QD), mean, read-out: AUCτ): ~1140 µg·h/mL
- Cmax ([1]; oral, 300 mg, Cycle 2 Day 1, 50 mg capsule, cohort 6 × 50 mg (300 mg QD), mean, read-out: Cmax): ~55200 ng/mL
- Tmax ([1]; oral, 300 mg, Cycle 2 Day 1, 50 mg capsule, cohort 6 × 50 mg (300 mg QD), median, read-out: Tmax): ~4 h
- Tmax ([1]; oral, 300 mg, Cycle 2 Day 1, cohort 6 × 50 mg BID > QD, individual values, N = 2, read-out: Tmax): ~3 h
- AUC ([1]; oral, 400 mg, Cycle 1 Day 1, 50 mg capsule, cohort 8 × 50 mg, mean, read-out: AUCτ): 131 µg·h/mL
- Cmax ([1]; oral, 400 mg, Cycle 1 Day 1, 50 mg capsule, cohort 8 × 50 mg, mean, read-out: Cmax): 7560 ng/mL
- Tmax ([1]; oral, 400 mg, Cycle 1 Day 1, 50 mg capsule, cohort 8 × 50 mg, median, read-out: Tmax): 3 h
- AUC ([1]; oral, 400 mg, Cycle 1 Day 1, 200 mg capsule, cohort 2 × 200 mg food adlib, mean, read-out: AUCτ): 112 µg·h/mL
- Cmax ([1]; oral, 400 mg, Cycle 1 Day 1, 200 mg capsule, cohort 2 × 200 mg food adlib, mean, read-out: Cmax): 6830 ng/mL
- Tmax ([1]; oral, 400 mg, Cycle 1 Day 1, 200 mg capsule, cohort 2 × 200 mg food adlib, median, read-out: Tmax): 4.5 h
- AUC ([1]; oral, 400 mg, Cycle 1 Day 1, 200 mg capsule, cohort 2 × 200 mg, mean, read-out: AUCτ): 68 µg·h/mL
- Cmax ([1]; oral, 400 mg, Cycle 1 Day 1, 200 mg capsule, cohort 2 × 200 mg, mean, read-out: Cmax): 4190 ng/mL
- Tmax ([1]; oral, 400 mg, Cycle 1 Day 1, 200 mg capsule, cohort 2 × 200 mg, median, read-out: Tmax): 5 h
- AUC ([1]; oral, 400 mg, Cycle 1 Day 1, cohort 8 × 50 mg > 6 × 50 mg (400 mg QD loading 14 days then 300 mg QD), Subject 100070 excluded, mean, read-out: AUCτ): 186 µg·h/mL
- Cmax ([1]; oral, 400 mg, Cycle 1 Day 1, cohort 8 × 50 mg > 6 × 50 mg (400 mg QD loading 14 days then 300 mg QD), Subject 100070 excluded, mean, read-out: Cmax): 10300 ng/mL
- Tmax ([1]; oral, 400 mg, Cycle 1 Day 1, cohort 8 × 50 mg > 6 × 50 mg (400 mg QD loading 14 days then 300 mg QD), median, read-out: Tmax): 3 h
- AUC ([1]; oral, 400 mg, Cycle 1 Day 1, cohort 8 × 50 mg > 6 × 50 mg, with Subject 100070 data included, read-out: mean AUC): 237 µg·h/mL
- Cmax ([1]; oral, 400 mg, Cycle 1 Day 1, cohort 8 × 50 mg > 6 × 50 mg, with Subject 100070 data included, read-out: mean Cmax): 12800 ng/mL
- AUC ([1]; oral, 400 mg, Cycle 2 Day 1, 50 mg capsule, cohort 8 × 50 mg, mean, read-out: AUCτ): 1590 µg·h/mL
- Cmax ([1]; oral, 400 mg, Cycle 2 Day 1, 50 mg capsule, cohort 8 × 50 mg, mean, read-out: Cmax): 94100 ng/mL
- Tmax ([1]; oral, 400 mg, Cycle 2 Day 1, 50 mg capsule, cohort 8 × 50 mg, median, read-out: Tmax): 3.5 h
- AUC ([1]; oral, 400 mg, Cycle 2 Day 1, 200 mg capsule, cohort 2 × 200 mg food adlib, mean, read-out: AUCτ): 1330 µg·h/mL
- Cmax ([1]; oral, 400 mg, Cycle 2 Day 1, 200 mg capsule, cohort 2 × 200 mg food adlib, mean, read-out: Cmax): 72300 ng/mL
- Tmax ([1]; oral, 400 mg, Cycle 2 Day 1, 200 mg capsule, cohort 2 × 200 mg food adlib, median, read-out: Tmax): 8 h
- AUC ([1]; oral, 400 mg, Cycle 2 Day 1, 200 mg capsule, cohort 2 × 200 mg, mean, read-out: AUCτ): 824 µg·h/mL
- Cmax ([1]; oral, 400 mg, Cycle 2 Day 1, 200 mg capsule, cohort 2 × 200 mg, mean, read-out: Cmax): 43200 ng/mL
- Tmax ([1]; oral, 400 mg, Cycle 2 Day 1, 200 mg capsule, cohort 2 × 200 mg, median, read-out: Tmax): 3 h
- AUC ([1]; oral, 600 mg, Cycle 1 Day 1, 200 mg capsule, cohort 3 × 200 mg, individual values, N = 2, read-out: AUCτ): 123 µg·h/mL
- Cmax ([1]; oral, 600 mg, Cycle 1 Day 1, 200 mg capsule, cohort 3 × 200 mg, individual values, N = 2, read-out: Cmax): 7790 ng/mL
- Tmax ([1]; oral, 600 mg, Cycle 1 Day 1, 200 mg capsule, cohort 3 × 200 mg, individual values, N = 2, read-out: Tmax): 3 h
- Cmax ([1]; oral, Cycle 2 Day 1, cohort 8 × 50 mg > 6 × 50 mg (400 mg QD loading 14 days then 300 mg QD), Subject 100070 excluded, mean, read-out: Cmax): 72200 ng/mL
- AUC ([1]; oral, Cycle 2 Day 1, cohort 8 × 50 mg > 6 × 50 mg, Subject 100070 excluded, mean, read-out: AUCτ): 1700 µg·h/mL
- Tmax ([1]; oral, Cycle 2 Day 1, cohort 8 × 50 mg > 6 × 50 mg, Subject 100070 excluded, median, read-out: Tmax): 3 h
- AUC ([1]; oral, Cycle 2 Day 1, cohort 8 × 50 mg > 6 × 50 mg, with Subject 100070 data included, read-out: mean AUC): 1810 µg·h/mL
- Cmax ([1]; oral, Cycle 2 Day 1, cohort 8 × 50 mg > 6 × 50 mg, with Subject 100070 data included, read-out: mean Cmax): 79700 ng/mL
- Tmax ([1]; po, 50 mg, Cycle 2 Day 1, 50 mg capsule, oral daily administration, read-out: median Tmax): 2 to 4 h
- Tmax ([1]; po, 200 mg, Cycle 2 Day 1, 200 mg capsule, oral daily administration, read-out: median Tmax): 3 to 8 h
- Tmax ([1]; po, first oral dose at Cycle 1 Day 1, doses of 50 to 600 mg, read-out: median Tmax): 3 to 6 h
- concentration at 0.25 h ([2]; 1 mg/kg BID PO 28 days): 323 ng/mL
- concentration at 0.25 h ([2]; 60 mg/kg QD PO 28 days): 6990 ng/mL
- concentration at 8 h ([2]; 60 mg/kg QD PO 28 days, 8 h post last dose): 10600 ng/mL
- sensitivity of tumor cell lines (cell viability) [3]: no single cell lines showing sensitivity to Compound A up to 20 μM
- IC50 [4]: 1170 nM

Source: US20240299376A1, “METHOD OF TREATING A CONDITION USING A […] EFFECTIVE DOSE OF 1-(1-OXO-1,2-DIHYDROISOQUINOLIN-5-YL)-5-(TRIFLUOROMETHYL)-N-(2-(TRIFLUOROMETHYL)PYRIDIN-4-YL)-1H-PYRAZOLE-4-CARBOXAMIDE” (Janssen Pharmaceutica NV, priority 2021, published 2024)
